Laboratory results published in article PMC12687421, “Characterisation of an allosteric site in PLCγ enzymes and implications for development of their specific inhibitors” (Biochemical Journal, 2025).
Numbering of substitutions follows the chain as printed.

Experiments:
PLCγ1^wt [1] = biological target: T1, PLCγ1^wt (Homo sapiens, UniProt P19174, I813T); assay: PLC activity assay 1 (A1), XY-69 substrate in liposomes, nucleotide inhibition; assay type: biochemical; details: for IC50: XY-69 in liposomes, mean and SD, nine replicates
T1 construct: specific activities of PLCγ1^wt and PLCγ2^wt full-length proteins; made in house; host or cells: Escherichia coli T7 Express lysY/Iq
T1 sequence (P19174 1-1291 isoform P19174-2 I813T): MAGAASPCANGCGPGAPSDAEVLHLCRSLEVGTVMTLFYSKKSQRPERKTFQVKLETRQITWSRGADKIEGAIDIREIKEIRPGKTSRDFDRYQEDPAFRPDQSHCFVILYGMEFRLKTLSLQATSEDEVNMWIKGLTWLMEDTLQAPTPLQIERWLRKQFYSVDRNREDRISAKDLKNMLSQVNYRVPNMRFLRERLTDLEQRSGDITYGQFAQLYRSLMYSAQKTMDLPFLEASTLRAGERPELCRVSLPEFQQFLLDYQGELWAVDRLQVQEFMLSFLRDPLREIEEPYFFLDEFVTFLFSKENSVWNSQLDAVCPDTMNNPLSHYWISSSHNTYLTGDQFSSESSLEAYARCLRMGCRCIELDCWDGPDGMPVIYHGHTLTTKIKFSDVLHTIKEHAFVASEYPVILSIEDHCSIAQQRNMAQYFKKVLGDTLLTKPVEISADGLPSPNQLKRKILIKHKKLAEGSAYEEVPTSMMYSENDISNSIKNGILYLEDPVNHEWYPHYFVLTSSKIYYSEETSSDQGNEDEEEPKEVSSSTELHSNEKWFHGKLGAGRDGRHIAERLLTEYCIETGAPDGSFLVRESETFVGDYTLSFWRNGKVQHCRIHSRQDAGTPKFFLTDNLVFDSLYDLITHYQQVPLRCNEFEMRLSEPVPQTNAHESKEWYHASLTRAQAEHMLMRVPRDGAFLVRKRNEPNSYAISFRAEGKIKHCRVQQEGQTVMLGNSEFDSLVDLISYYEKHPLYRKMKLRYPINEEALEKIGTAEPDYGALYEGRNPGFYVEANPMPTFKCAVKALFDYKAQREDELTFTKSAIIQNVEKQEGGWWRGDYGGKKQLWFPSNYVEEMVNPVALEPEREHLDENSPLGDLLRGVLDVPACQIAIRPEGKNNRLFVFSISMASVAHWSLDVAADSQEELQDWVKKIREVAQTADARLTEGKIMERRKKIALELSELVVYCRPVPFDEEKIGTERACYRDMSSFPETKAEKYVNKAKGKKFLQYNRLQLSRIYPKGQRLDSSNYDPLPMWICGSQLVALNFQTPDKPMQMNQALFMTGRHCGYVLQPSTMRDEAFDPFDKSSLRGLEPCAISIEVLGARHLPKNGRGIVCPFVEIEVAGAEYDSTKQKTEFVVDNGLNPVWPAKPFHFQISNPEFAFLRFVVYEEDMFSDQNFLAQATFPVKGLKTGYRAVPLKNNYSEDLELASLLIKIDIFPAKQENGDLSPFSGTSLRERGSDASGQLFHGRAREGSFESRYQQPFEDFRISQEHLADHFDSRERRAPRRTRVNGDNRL

PLCγ1^wt [2] = biological target: T1, PLCγ1^wt; assay: Microscale thermophoresis (MST) binding; details: one-site binding model
Experimental: (§1) Proteins were diluted to 200 nM in MST buffer [50 mM Hepes.KOH, 70 mM KCl, 5% (v/v) glycerol, 0.05% (v/v) Tween-20, 2 mM DTT (pH 7.5)] and subsequently labelled by adding an equal volume of 100 nM 2nd generation RED-Tris-NTA labelling dye and incubating for 30 minutes. […] An equal volume of labelled protein was added to each ligand concentration and the mixture taken up into a standard MST capillary. Samples were measured in a Monolith NT.115 pico instrument (Nanotemper) using the Nano-RED channel. Excitation power was set to 5% and MST power set to high. All experiments were performed at 25°C. All data were analysed using the manufacturer’s MO.Control software and repeated at least three times with representative experiments shown.

PLCγ1^K491D = biological target: T2, PLCγ1^K491D (Homo sapiens, UniProt P19174, I813T/K491D); assay: Microscale thermophoresis (MST) binding, K491D variant; details: read-out: estimated Kd, MST, PLCγ1^K491D
T2 construct: made in house; host or cells: Escherichia coli T7 Express lysY/Iq
T2 sequence (P19174 1-1291 isoform P19174-2 K491D/I813T): T1 sequence (P19174 1-1291 isoform P19174-2 I813T) with K491D
Experimental: as §1

IC50 in liposome assay (A1) relative to solution assay (A2), fold lower (PLCγ1^wt [1]) | IC50 (PLCγ1^wt [1]) [µM] | IC50 of ADP relative to ATP (fold lower) (PLCγ1^wt [1]; assays A1 and A2) | Kd (PLCγ1^wt [2]) [µM] | Kd (PLCγ1^K491D) [µM] | SMILES
eight-fold | 1 to 20 | 2–4 fold | 30 to 50 | 1000 to 2000 | Nc1ncnc2c1ncn2[C@@H]1O[C@H](COP(=O)(O)OP(=O)(O)O)[C@@H](O)[C@H]1O [ADP]
 | 1 to 20 |  | 30 to 50 | ~700 | Nc1ncnc2c1ncn2[C@@H]1O[C@H](COP(=O)(O)OP(=O)(O)OP(=O)(O)O)[C@@H](O)[C@H]1O [ATP]
